Where two headings read alike, the source gives them in different places. Ends that are not written are not given here. Peptide text beside a SMILES is read from it. * marks the point of attachment. Dansyl = CN(C)c1cccc2c(S(=O)(=O)*)cccc12; Desaminotyrosyl = O=C(CCc1ccc(O)cc1)*
What was measured:
[1] = Immobilized artificial membrane (IAM) chromatography; format: physicochemical
Text: The purity of this new neuropeptide FF antagonist was confirmed by combustion analysis [Table 1] (data were within ±0.4% of calculated values) and ESI mass spectrometry (no impurities exceeding 1% based on relative ion abundance). […] The compounds were also characterized by immobilized artificial membrane (IAM) chromatography, a method that furnishes capacity factors whose logarithm generally correlates with in vivo absorption [Pidgeon, et al., J. Med. Chem. 1995, 38, 590-594] including penetration across the BBB [Reichel, et al., Pharm. Res. 1998, 15, 1270-1274].
The combinatorial libraries herein were prepared on a SynPep (Dublin, Calif.) multiple peptide synthesizer. A Synthor 2000, Peptide International (Louisville, Ky.) instrument was used for the preparation of the individual compounds by Fmoc chemistry. Immobilized artificial membrane (IAM) chromatography was performed on a system that included a model SP 8810 precision isocratic pump, an SP 8880 autosampler with a 20-μL injection loop, an SP 8450 variable wavelength UV/VIS detector operated at 254 nm, and SP 4290 computing integrator (all from ThermoSeparation|SpectraPhysics, Fremont, Calif.). RP-HPLC purification was done on a system composed of an SP 200 binary gradient pump (ThermoSeparation), a Rheodyne (Cotati, Calif.) model 7125 injector valve equipped with a 5-mL sample loop, and an SP 100 UV/VIS detector (ThermoSeparation) operated at 210 nm. Electrospray ionization (ESI) and tandem mass spectra were obtained on a quadrupole ion trap instrument (LCQ, Finnigan MAT, San Jose, Calif.). NMR spectra were recorded on Bruker AVANCE instruments (Bremen, Germany). Resonance frequencies were 500 and 600 MHz for ^1H and 127 MHz for ^13C. The samples were dissolved in H2O/D2O (8/2, v/v).

[2] = molecular target: receptor labeled by the radioiodinated analogue of 1 (4, [125I]-YLFQPQRF-NH2); neuropeptide FF receptor; conditions: CNS membrane preparation, literature value; cited from earlier work
[3] = molecular target: receptor labeled by the radioiodinated analogue of 1 (4, [125I]-YLFQPQRF-NH2); neuropeptide FF receptor; assay: Competitive radioligand binding against 4 ([125I]Y8F-amide); conditions: for Ki: competition against 4; for Relative Binding Index (RBI): mixture-based positional scanning, difference from averaged radioligand displacement of whole library (0), about 80 a.u. = 10-fold change in Ki
[4] = system: naloxone-precipitated withdrawal symptoms; conditions: cited from earlier work
[5] = system: abstinence-like signs induced by neuropeptide FF (1); conditions: cited from earlier work
[6] = after systemic administration; cited from earlier work
[7] = system: opiate abstinence syndrome; conditions: 2 μg i.c.v.; cited from earlier work

Row | Compound | Relative Binding Index (RBI) [3] | further results
1 | CN(C)c1cccc2c(S(=O)(=O)N3CCCC3C(=O)NC(CCC(N)=O)C(=O)NC(CCCNC(=N)N)C(N)=O)cccc12 (stereo not drawn) [Compound 3, Dansyl-Pro-Gln-Arg-NH2, reference compound] (Dansyl-Pro-Gln-Arg-NH2; configuration not given here) | −34 a.u. | kIAM′ (IAM capacity factor) [1]: 5.9; log kIAM′ [1]: 0.77; inhibition constant (Ki) [2]: micromolar range; Ki [3]: 13600 nM; naloxone-precipitated withdrawal symptoms in morphine-dependent rats ([4]; administered subcutaneously): blunted; QMAS induced by 1 ([5]; rat, in vivo): dose-dependently antagonized
2 | CN(C)c1cccc2c(S(=O)(=O)N[C@@H](Cc3ccc(O)cc3)C(=O)N[C@@H](CC(=O)O)C(=O)N[C@@H](CCCNC(=N)N)C(N)=O)cccc12 [Dansyl-YDR-amide] (Dansyl-Tyr-Asp-Arg-NH2) | −11 a.u. | –
3 | CN(C)c1cccc2c(S(=O)(=O)N[C@@H](Cc3ccc(O)cc3)C(=O)N[C@@H](CCC(=O)O)C(=O)N[C@@H](CCCNC(=N)N)C(N)=O)cccc12 [Dansyl-YER-amide] (Dansyl-Tyr-Glu-Arg-NH2) | 7 a.u. | –
4 | CN(C)c1cccc2c(S(=O)(=O)N[C@@H](Cc3ccc(O)cc3)C(=O)NCC(=O)N[C@@H](CCCNC(=N)N)C(N)=O)cccc12 [Dansyl-YGR-amide] (Dansyl-Tyr-Gly-Arg-NH2) | 12 a.u. | –
5 | CC[C@H](C)[C@H](NC(=O)[C@H](Cc1ccc(O)cc1)NS(=O)(=O)c1cccc2c(N(C)C)cccc12)C(=O)N[C@@H](CCCNC(=N)N)C(N)=O [Dansyl-YIR-amide] (Dansyl-Tyr-Ile-Arg-NH2) | 13 a.u. | –
6 | CN(C)c1cccc2c(S(=O)(=O)N[C@@H](Cc3ccc(O)cc3)C(=O)N3CCC[C@H]3C(=O)N[C@@H](CCCNC(=N)N)C(N)=O)cccc12 [Dansyl-YPR-amide] (Dansyl-Tyr-Pro-Arg-NH2) | 10 a.u. | –
7 | CN(C)c1cccc2c(S(=O)(=O)N[C@@H](Cc3ccc(O)cc3)C(=O)N[C@@H](CCC(N)=O)C(=O)N[C@@H](CCCNC(=N)N)C(N)=O)cccc12 [Dansyl-YQR-amide] (Dansyl-Tyr-Gln-Arg-NH2) | 21 a.u. | –
8 | C[C@@H](O)[C@H](NC(=O)[C@H](Cc1ccc(O)cc1)NS(=O)(=O)c1cccc2c(N(C)C)cccc12)C(=O)N[C@@H](CCCNC(=N)N)C(N)=O [Dansyl-YTR-amide] (Dansyl-Tyr-Thr-Arg-NH2) | 13 a.u. | –
9 | CN(C)c1cccc2c(S(=O)(=O)N[C@@H](Cc3ccc(O)cc3)C(=O)N[C@@H](Cc3ccc(O)cc3)C(=O)N[C@@H](CCCNC(=N)N)C(N)=O)cccc12 [Dansyl-YYR-amide] (Dansyl-Tyr-Tyr-Arg-NH2) | 6 a.u. | –
10 | Desaminotyrosyl-Phe-Leu-Phe-Gln-Pro-Gln-Arg-NH2 (Desaminotyrosyl-FLFQPQR-NH2; SMILES CC(C)C[C@H](NC(=O)[C@H](Cc1ccccc1)NC(=O)CCc1ccc(O)cc1)C(=O)N[C@@H](Cc1ccccc1)C(=O)N[C@@H](CCC(N)=O)C(=O)N1CCC[C@H]1C(=O)N[C@@H](CCC(N)=O)C(=O)N[C@@H](CCCNC(=N)N)C(N)=O) [Compound 2] | – | Ki [3]: 840 ± 180 nM; CNS bioavailability [6]: did not show any CNS bioavailability; abstinence signs upon naloxone challenge in morphine-dependent animals ([4]; icv administration): attenuated; abstinence-like signs induced by 1 in opiate-naive rats ([5]; icv administration): attenuated
11 | Phe-Leu-Phe-Gln-Pro-Gln-Arg-Phe-NH2 (FLFQPQRF-NH2) [Compound 1, endogenous neuropeptide FF] | – | opiate abstinence syndrome in morphine-dependent rats [7]: precipitates; quasi-morphine-abstinence syndrome (QMAS) in opiate-naive rats ([5]; 15 μg i.c.v.): induces
12 | Pro-Phe-Arg(Tic)-NH2 [Compound 3a] | – | potency (or efficacy) in the pharmacological tests employed ([4]; compared with 3): less than that of 3; naloxone-precipitated withdrawal symptoms in morphine-dependent rats ([4]; systemic administration): attenuated

Continued, in another order:

Row | Relative Binding Index (RBI) [3] | Compound | further results
13 | 46 a.u. | CN(C)c1cccc2c(S(=O)(=O)NCC(=O)NC(CO)C(=O)NC(CCCNC(=N)N)C(N)=O)cccc12 (stereo not drawn) [Compound 5, dansyl-Gly-Ser-Arg-NH2] (Dansyl-Gly-Ser-Arg-NH2; configuration not given here) | kIAM′ (IAM capacity factor) [1]: 8.0; log kIAM′ [1]: 0.90; Ki [3]: 1400 ± 500 nM; increase in binding affinity compared to 3 ([3]; ratio of Ki values): approximately 10 fold
14 | 6 a.u. | CN(C)c1cccc2c(S(=O)(=O)N[C@@H](Cc3ccc(O)cc3)C(=O)N[C@@H](Cc3ccccc3)C(=O)N[C@@H](CCCNC(=N)N)C(N)=O)cccc12 [Dansyl-YFR-amide] (Dansyl-Tyr-Phe-Arg-NH2) | –
15 | 1 a.u. | CN(C)c1cccc2c(S(=O)(=O)N[C@@H](Cc3ccc(O)cc3)C(=O)N[C@@H](Cc3cnc[nH]3)C(=O)N[C@@H](CCCNC(=N)N)C(N)=O)cccc12 [Dansyl-YHR-amide] (Dansyl-Tyr-His-Arg-NH2) | –
16 | 5 a.u. | CN(C)c1cccc2c(S(=O)(=O)N[C@@H](Cc3ccc(O)cc3)C(=O)N[C@@H](CCCCN)C(=O)N[C@@H](CCCNC(=N)N)C(N)=O)cccc12 [Dansyl-YKR-amide] (Dansyl-Tyr-Lys-Arg-NH2) | –
17 | −1 a.u. | CC(C)C[C@H](NC(=O)[C@H](Cc1ccc(O)cc1)NS(=O)(=O)c1cccc2c(N(C)C)cccc12)C(=O)N[C@@H](CCCNC(=N)N)C(N)=O [Dansyl-YLR-amide] (Dansyl-Tyr-Leu-Arg-NH2) | –
18 | 7 a.u. | CSCC[C@H](NC(=O)[C@H](Cc1ccc(O)cc1)NS(=O)(=O)c1cccc2c(N(C)C)cccc12)C(=O)N[C@@H](CCCNC(=N)N)C(N)=O [Dansyl-YMR-amide] (Dansyl-Tyr-Met-Arg-NH2) | –
19 | 8 a.u. | CN(C)c1cccc2c(S(=O)(=O)N[C@@H](Cc3ccc(O)cc3)C(=O)N[C@@H](CC(N)=O)C(=O)N[C@@H](CCCNC(=N)N)C(N)=O)cccc12 [Dansyl-YNR-amide] (Dansyl-Tyr-Asn-Arg-NH2) | –
20 | 6 a.u. | CN(C)c1cccc2c(S(=O)(=O)N[C@@H](Cc3ccc(O)cc3)C(=O)N[C@@H](CCCNC(=N)N)C(=O)N[C@@H](CCCNC(=N)N)C(N)=O)cccc12 [Dansyl-YRR-amide] (Dansyl-Tyr-Arg-Arg-NH2) | –
21 | 28 a.u. | CN(C)c1cccc2c(S(=O)(=O)N[C@@H](Cc3ccc(O)cc3)C(=O)N[C@@H](CO)C(=O)N[C@@H](CCCNC(=N)N)C(N)=O)cccc12 [Dansyl-YSR-amide] (Dansyl-Tyr-Ser-Arg-NH2) | –
22 | 2 a.u. | CC(C)[C@H](NC(=O)[C@H](Cc1ccc(O)cc1)NS(=O)(=O)c1cccc2c(N(C)C)cccc12)C(=O)N[C@@H](CCCNC(=N)N)C(N)=O [Dansyl-YVR-amide] (Dansyl-Tyr-Val-Arg-NH2) | –
23 | 16 a.u. | CN(C)c1cccc2c(S(=O)(=O)N[C@@H](Cc3ccc(O)cc3)C(=O)N[C@@H](Cc3c[nH]c4ccccc34)C(=O)N[C@@H](CCCNC(=N)N)C(N)=O)cccc12 [Dansyl-YWR-amide] (Dansyl-Tyr-Trp-Arg-NH2) | –
